Data taken from article PMC7769078 (International Journal of Nanomedicine, 2020).

Experiments:
[1] = system: zebrafish larvae (7 dpf); experiment: C6-NPs endocytosis in larval zebrafish with endocytic inhibitors; type: in vivo, zebrafish (Danio rerio); conditions: 7 dpf larvae, 30 min inhibitor, C6-NPs 100 ng/mL 30 min
[2] = system: SH-SY5Y cells; experiment: Cytoprotection against MPP+-induced cell death in SH-SY5Y cells; type: cell-based, human; conditions: for viability of MPP+-treated SH-SY5Y cells: 2 h pre-treatment, then 2 mM MPP+ 36 h

In the case of methyl-β-cyclodextrin [MβCD], the “inhibitory effect on C6-NPs internalization in zebrafish larvae” value [1] is reported as “most profound inhibitory effect”.

`CN(C)CCCN1c2ccccc2Sc2ccc(Cl)cc21` [CPZ, chlorpromazine] was tested, and the “inhibitory effect on C6-NPs internalization in zebrafish larvae” value [1] was “most profound inhibitory effect”.

`C[n+]1ccc(-c2ccccc2)cc1` [MPP^+, 1-methyl-4-phenylpyridinium ion] was tested, and the “cell death induced in SH-SY5Y cells” value ([2]; 2 mM MPP+, 36 h) was 47.6%.

With Ginkgolide B [GB] the “viability of MPP+-treated SH-SY5Y cells” value ([2]; 1 μM) was 60%, the “viability of MPP+-treated SH-SY5Y cells” value ([2]; 5 μM) was 65% and the “viability of MPP+-treated SH-SY5Y cells” value ([2]; 10 μM) was 71%. The “viability of MPP+-treated SH-SY5Y cells” value ([2]; 20 μM) was 78%.
